Measurements from the supplement of paper PMC10307832.

Experiments:
Assay in all cases: relative viability (nuclei count vs DMSO), 5 days (fraction); higher = more cells survive
CUDC-101 + Luminespib = compound: C#Cc1cccc(Nc2ncnc3cc(OC)c(OCCCCCCC(=O)NO)cc23)c1 [CUDC-101] + CCNC(=O)c1noc(-c2cc(C(C)C)c(O)cc2O)c1-c1ccc(CN2CCOCC2)cc1 [Luminespib] (partner 0.01 µM)
Outline: (§1)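 Lung cancer cell lines, seeded in 1536-well plates, were treated the following day by pin tool with a single drug or with five library-drug doses (not always all listed) in √10 steps on top of a fixed anchor-drug dose. Cells were fixed and nuclei stained in one step after 5 days, and nuclei were counted. Relative viability is the nuclei count for treated wells divided by that for vehicle wells, reported as medians of duplicate plates.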

NVP-TAE684 + Alpelisib = compound: COc1cc(N2CCC(N3CCN(C)CC3)CC2)ccc1Nc1ncc(Cl)c(Nc2ccccc2S(=O)(=O)C(C)C)n1 [NVP-TAE684] + Cc1nc(NC(=O)N2CCC[C@H]2C(N)=O)sc1-c1ccnc(C(C)(C)C(F)(F)F)c1 [Alpelisib] (partner 2 µM)
Outline: as §1

Vandetanib + Navitoclax = compound: COc1cc2/c(=N/c3ccc(Br)cc3F)nc[nH]c2cc1OCC1CCN(C)CC1 [Vandetanib] + CC1(C)CCC(c2ccc(Cl)cc2)=C(CN2CCN(c3ccc(C(=O)NS(=O)(=O)c4ccc(N[C@H](CCN5CCOCC5)CSc5ccccc5)c(S(=O)(=O)C(F)(F)F)c4)cc3)CC2)C1 [Navitoclax] (partner 0.5 µM)
Outline: as §1

Vandetanib + Crizotinib = compound: COc1cc2/c(=N/c3ccc(Br)cc3F)nc[nH]c2cc1OCC1CCN(C)CC1 [Vandetanib] + C[C@@H](Oc1cc(-c2cnn(C3CCNCC3)c2)cnc1N)c1c(Cl)ccc(F)c1Cl [Crizotinib] (partner 1 µM)
Outline: as §1

| Cell Line | relative viability (CUDC-101 + Luminespib; first compound 0.01 µM) | relative viability (CUDC-101 + Luminespib; first compound 0.03162 µM) | relative viability (CUDC-101 + Luminespib; first compound 0.1 µM) | relative viability (CUDC-101 + Luminespib; first compound 0.3162 µM) | relative viability (CUDC-101 + Luminespib; first compound 1 µM) | relative viability (NVP-TAE684 + Alpelisib; first compound 0.2 µM) | relative viability (NVP-TAE684 + Alpelisib; first compound 0.6325 µM) | relative viability (NVP-TAE684 + Alpelisib; first compound 2 µM) | relative viability (Vandetanib + Navitoclax; first compound 0.02 µM) | relative viability (Vandetanib + Navitoclax; first compound 0.06325 µM) | relative viability (Vandetanib + Navitoclax; first compound 0.2 µM) | relative viability (Vandetanib + Navitoclax; first compound 0.6325 µM) | relative viability (Vandetanib + Navitoclax; first compound 2 µM) | relative viability (Vandetanib + Crizotinib; first compound 0.02 µM) | relative viability (Vandetanib + Crizotinib; first compound 0.06325 µM) | relative viability (Vandetanib + Crizotinib; first compound 0.2 µM) | relative viability (Vandetanib + Crizotinib; first compound 0.6325 µM) | relative viability (Vandetanib + Crizotinib; first compound 2 µM) |
| --- | --- | --- | --- | --- | --- | --- | --- | --- | --- | --- | --- | --- | --- | --- | --- | --- | --- | --- |
| PC-3 [JPC-3] | 0.739 | 0.648 | 0.64 | 0.563 | 0.301 | 0.963 | 1.02 | 0.893 | 0.783 | 0.738 | 0.777 | 0.719 | 0.451 | 0.96 | 0.943 | 0.935 | 0.811 | 0.52 |
| IA-LM |  |  |  |  |  | 0.588 | 0.55 | 0.431 | 0.648 | 0.661 | 0.878 | 1.1 | 1.29 | 0.978 | 0.802 | 0.899 | 1.3 | 1.24 |
| NCI-H520 | 0.241 | 0.221 | 0.208 | 0.204 | 0.245 | 1.17 | 1.16 | 0.354 | 0.946 | 1.04 | 1.08 | 1.07 | 1.04 | 0.923 | 0.894 | 0.859 | 0.772 | 0.655 |
| A549 |  |  |  |  |  | 0.823 | 0.58 | 0.253 | 1.12 | 1.23 | 1.12 | 1.08 | 1.22 | 0.777 | 0.69 | 0.862 | 0.686 | 0.683 |
| BEN | 0.534 | 0.402 | 0.467 | 0.302 | 0.37 |  | 0.955 | 1.02 | 0.0787 | 0.0663 | 0.063 | 0.0857 | 0.0698 | 0.809 | 0.807 | 0.89 | 0.862 | 0.785 |
| COR-L 105 | 0.768 | 0.701 | 0.845 | 0.831 | 0.476 | 0.852 | 0.926 | 0.538 | 0.833 | 0.888 | 0.826 | 0.804 | 0.353 | 0.851 | 0.839 | 0.729 | 0.731 | 0.248 |
| NCI-H1734 | 0.206 | 0.185 | 0.193 | 0.167 | 0.157 | 0.768 | 0.916 | 0.468 | 0.854 | 0.766 | 0.801 | 0.804 | 0.818 | 0.737 | 0.618 | 0.67 | 0.639 | 0.648 |
| LOU-NH91 | 0.395 | 0.216 | 0.334 | 0.385 | 0.316 | 0.68 | 0.623 | 0.532 | 0.709 | 0.561 | 0.553 | 0.535 | 0.445 | 0.766 | 0.656 | 0.637 | 0.558 | 0.533 |
| NCI-H2405 | 0.797 | 0.662 | 0.703 | 0.917 | 0.741 | 0.835 | 0.662 | 0.374 | 0.786 | 0.426 | 0.889 | 1.23 | 0.696 | 0.876 | 0.664 | 0.875 | 0.88 | 0.795 |
| HCC-15 | 0.169 | 0.279 | 0.299 | 0.559 | 0.596 | 0.865 | 0.933 | 0.678 | 0.685 | 0.702 | 0.682 | 0.756 | 0.649 | 0.837 | 0.793 | 0.855 | 0.826 | 0.821 |
| HCC-44 | 0.947 | 0.909 | 1.03 | 1.03 | 1.06 | 0.835 | 0.784 | 0.313 | 1.05 | 1.02 | 0.93 | 0.976 | 0.947 | 0.82 | 0.802 | 0.879 | 0.863 | 0.872 |
| NCI-H1792 | 0.459 | 0.381 | 0.578 | 0.504 | 0.25 | 0.647 | 0.718 | 0.684 | 0.676 | 0.573 | 0.599 | 0.626 | 0.609 | 0.941 | 0.973 | 0.924 | 0.991 | 0.894 |
| NCI-H2347 | 0.617 | 0.458 | 0.47 | 0.415 | 0.331 | 1.14 | 1.07 | 0.906 | 0.878 | 0.453 | 0.834 | 0.945 | 0.708 | 0.665 | 0.56 | 0.737 | 0.789 | 0.718 |
| SW 900 | 0.168 | 0.181 | 0.185 | 0.157 | 0.174 |  |  |  |  |  |  |  |  |  |  |  |  |  |
| RERF-LC-KJ | 1.36 | 1.3 | 1.25 | 1.18 | 0.794 | 0.789 | 0.743 | 0.843 | 0.952 | 0.746 | 0.835 | 1.06 | 0.605 | 0.83 | 0.789 | 0.871 | 0.883 | 0.794 |
| NCI-H522 | 1.18 | 1.19 | 1.03 | 1.66 | 0.686 |  |  |  |  |  |  |  |  |  |  |  |  |  |
| NCI-H1666 | 1.09 | 1.02 | 1.1 | 1 | 1.07 |  | 0.837 | 0.524 | 0.83 | 0.861 | 0.951 | 0.88 | 0.46 | 1.05 | 0.894 | 0.974 | 0.859 | 0.793 |
| LC-2-ad | 1.04 | 0.953 | 1.15 | 0.974 | 0.707 | 0.813 | 0.801 | 0.232 | 0.44 | 0.482 | 0.548 | 0.403 | 0.243 | 0.468 | 0.46 | 0.493 | 0.441 | 0.414 |
| NCI-H2023 | 0.807 | 0.568 | 0.855 | 0.797 | 0.632 | 0.589 | 0.537 | 0.308 | 0.898 | 0.971 | 1.04 | 1.01 | 0.996 | 0.661 | 0.556 | 0.624 | 0.49 | 0.499 |
